Data: patent US5002948A, “3-[4-[4-substituted-1-piperazinyl]-1-butyl]-1H-2,3-dihydroindoles” (H. Lundbeck A/S, priority 1988, dated 1991)

Key:
[1] = target: T1, serotonin 5-HT1A receptors (Rattus norvegicus, UniProt P19327); assay: Inhibition of 3H-8-OHDPAT binding to serotonin 5-HT1A receptors in rat brain in vitro; settings: 3H-8-OHDPAT 1 nM, rat brain membranes minus cerebellum, 37° C., 15 min; read-out: IC50 (3H 8-OH DPAT binding)
T1 construct: membranes from rat brain minus cerebellum; from tissue; host or cells: brain minus cerebellum of male Wistar (Mol:Wist) rats, membranes
T1 sequence (P19327 1-422): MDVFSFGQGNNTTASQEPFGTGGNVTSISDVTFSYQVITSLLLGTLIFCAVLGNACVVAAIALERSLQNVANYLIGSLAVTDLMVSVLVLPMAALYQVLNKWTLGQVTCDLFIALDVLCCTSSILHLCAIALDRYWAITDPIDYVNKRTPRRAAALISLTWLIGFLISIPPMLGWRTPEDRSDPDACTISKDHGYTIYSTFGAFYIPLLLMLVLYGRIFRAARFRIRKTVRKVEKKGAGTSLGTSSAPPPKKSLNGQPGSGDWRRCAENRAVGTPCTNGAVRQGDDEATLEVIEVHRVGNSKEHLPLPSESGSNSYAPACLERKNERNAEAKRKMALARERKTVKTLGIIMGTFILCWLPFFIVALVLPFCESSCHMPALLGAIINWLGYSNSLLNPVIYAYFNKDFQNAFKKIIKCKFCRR
Protocol: INHIBITION OF ^3 H-8-OHDPAT BINDING TO SEROTONIN 5-HT1A RECEPTORS IN A RAT BRAIN IN VITRO
By this method the inhibition by drugs of the binding of ^3 H-8-OHDPAT (1 nM) to serotonin 5-HT1A receptors in membranes from rat brain minus cerebellum is determined in vitro.
Male Wistar (Mol:Wist) rats (125-250 g) are sacrificed and the brain is dissected and weighed. The brain tissue minus cerebellum is homogenized (Ultra Turrax, 20 sec) in 10 ml of ice cold 50 mM Tris buffer pH 8.0 (at 25° C.) containing 120 mM NaCl, 4 mM CaCl2 and 4 mM MgCl2. The homogenate is centrifuged at 20,000 g for 10 min at 4° C. The pellet is homogenized in 10 ml of buffer and incubated at 37° C. for 10 min. The homogenate is centrifuged as above and the pellet is homogenized in 100 vol (w/v) ice cold buffer containing 10 μ M of parglyine.
Incubation tubes kept on ice in triplicate receive 100 μl of drug solution in water (or water for total binding) and 1000 μ l of tissue suspension (final tissue content corresponds to 10 mg original tissue). The binding experiment is initiated by addition of 100 μ l of ^3 H-8-OHDPAT (final concentration 1 nM) and by placing the tubes in a 37° C. water bath. After incubation for 15 min the samples are filtered under vacuum (0-50 mBar) through Whatman GF/F filters ([…]). The tubes are rinsed with 5 ml ice cold 0.9% NaCl which are then poured on the filters. Thereafter, the filters are washed with 2×5 ml 0.9% NaCl. The filters are placed in counting vials and 4 ml of appropriate scintillation fluid (e.g. Picofluor™15) are added. After shaking for 1 h and storage 2 h in the dark the content of radioactivity is determined by liquid scintillation counting. Specific binding is obtained by subtracting the nonspecific binding in the presence of 10 μ M of 5-HT.
For determination of the inhibition of binding five concentrations of drugs covering 3 decades are used.
The IC50 -value is determined as the concentration, at which the binding is 50% of the total binding in control samples minus the nonspecific binding in the presence of 10 μM of 5-HT.
^3 H-8-OHDPAT from Amersham International plc. England. Specific activity approximately 200 Ci/mmol).

5-HT1A [2] = target: T2, 5-HT1A (Rattus norvegicus, UniProt P19327); assay: Generalization to discriminative stimulus properties induced by 8-OHDPAT in rats (agonism); format: in vivo, Male Wistar rats; design: from tissue; host or cells: whole living animal, male Wistar rats, s.c. dosing; settings: usually 30 or 45 min before test, substituted for 8-OHDPAT, per cent drug response; for ED50: rat, sc, read-out: ED50, 8-OH DPAT cue agonism
T2 sequence (P19327 1-422): T1 sequence (P19327 1-422)
Source text: GENERALIZATION TO DISCRIMINATIVE STIMULUS PROPERTIES INDUCED BY 8-OHDPAT IN RATS.
This test model is used to determine the agonist effects of a test compound on 5-HT1A receptors in vivo. A related method is described by Tricklebank, M. D., J. Neill, E. J. Kidd and J. R. Fozard, Eur. J. Pharmacol. 133, 37-56, 1987; Arnt, J., Pharmacology & Toxicology 64, 165-172, 1989.
The procedure is the same as for the antagonism test mentioned above, except that the test compound is substituted for 8-OHDPAT and injected s.c. usually 30 minutes or 45 minutes respectively before beginning of the test.
The per cent drug response obtained for each dose of test compound is used to calculate ED50 values by log-probit analysis.

5-HT1A [3] = target: T2, 5-HT1A; assay: Inhibition of 5-methoxy-N,N-dimethyltryptamine (5-MeODMT) induced 5-HT syndrome in rats; format: in vivo, Male Wistar rats; design: Male Wistar rats (Mol:Wist) weighing 170-240 g are used; from tissue; host or cells: whole living animal, male Wistar rats (Mol:Wist), s.c. dosing; settings: 30 min before 5-MeODMT 5 mg/kg s.c., per cent inhibition of piano playing syndrome; for ED50: rat, sc
Source text: INHIBITION OF 5-METHOXY-N,N-[…] INDUCED 5-HT SYNDROME IN RATS
The so-called 5-HT syndrome is a characteristic behaviour pattern which is induced by 5-HT agonists with effects on 5-HT, possibly 5-HT1A receptors, although lack of specific antagonists make it difficult to evaluate specificity (Smith, L. M. and S. J. Peroutka, Pharmacol. Biochem. & Behaviour 24, 1513-1519, 1986; Tricklebank, M. et al., Eur. J. Pharmacol. 117, 15-24, 1985).
Male Wistar rats (Mol:Wist) weighing 170-240 g are used. Test substrate is injected subcutaneously 30 min. before 5-methoxy-N,N-dimethyltryptamine 5 mg/kg, s.c. Four rats are used for each dose. A control group pretreated with saline is included each test day. Ten, 15 and 20 min later the rats are observed for presence of serotonin (5-HT) syndrome: (1) forepaw treading ("piano playing"), (2) head weaving and (3) hindleg abduction. Further, flat motility is scored. Each part of the syndrome is scored as follows: marked effect (score 2), weak syndrome (score 1) and no effect (score 0). The scores of the three observation times are added. Thus the maximum obtainable score for four rats is 24. The effect of the test substance is expressed as per cent inhibition relative to the control group.
The per cent inhibition of the piano playing syndrome is used as the response, and ED50 values are calculated by log-prohibit analysis.

Compound | IC50 [1] | ED50 (5-HT1A [2]) | ED50 (5-HT1A [3]) | ED50, 8-OH DPAT cue agonism (5-HT1A [2]; s.c.) | ED50, inhibition of 5-MeODMT induced 5-HT syndrome (5-HT1A [3]; s.c.)
CCOc1ccccc1N1CCN(CCCCC2CNc3ccccc32)CC1 (stereo not drawn) [Compound 3c, 3-[4-[4-(2-ethoxyphenyl)-1-piperazinyl]-1-butyl]-1H-2,3-dihydroindole] | 11 nM | > 26 µmol/kg | 0.48 µmol/kg | – | –
COc1ccccc1N1CCN(CCCCC2CNc3ccccc32)CC1 (single isomer, unassigned; (+)) [Compound 7a, (+)-3-[4-[4-(2-methoxyphenyl)-1-piperazinyl]-1-butyl]-1H-2,3-dihydroindole] | 13 nM | > 6.8 µmol/kg | 2.1 µmol/kg | – | –
COc1ccccc1N1CCN(CCCCC2CNc3ccccc32)CC1 (stereo not drawn) [Compound 3a, 3-[4-[4-(2-methoxyphenyl)-1-piperazinyl]-1-butyl]-1H-2,3-dihydroindole] | 14 nM | > 9.2 µmol/kg | 1.9 µmol/kg | – | –

Stronger by IC50 [1], values ahead:

IC50 [1] | ED50 (5-HT1A [2]) | ED50 (5-HT1A [3]) | ED50, 8-OH DPAT cue agonism (5-HT1A [2]; s.c.) | ED50, inhibition of 5-MeODMT induced 5-HT syndrome (5-HT1A [3]; s.c.) | Compound
9.4 nM | 2.7 µmol/kg | 4 µmol/kg | – | – | c1ccc2c(c1)NCC2CCCCN1CCN(c2cccc3c2OCC3)CC1 (stereo not drawn) [Compound 3i, 3-[4-[4-(2,3-dihydro-7-benzofuranyl)-1-piperazinyl]-1-butyl]-1H-2,3-dihydroindole]
8.6 nM | – | – | > 3.4 µmol/kg | 1.3 µmol/kg | COc1ccccc1N1CCN(CCCCC2CNc3ccccc32)CC1 (single isomer, unassigned; (-)) [Compound 7b, (-)-3-[4-[4-(2-methoxyphenyl)-1-piperazinyl]-1-butyl]-1H-2,3-dihydroindole]
3.3 nM | > 4.4 µmol/kg | 3.1 µmol/kg | – | – | c1ccc2c(c1)NCC2CCCCN1CCN(c2cccc3c2OCCO3)CC1 (stereo not drawn) [Compound 3j, 3-[4-[4-(1,4-benzodioxan-5-yl)-1-piperazinyl]-1-butyl]-1H-2,3-dihydroindole]
